Paper PMC12775434, “Ultra-large virtual screening unveils potent agonists of the neuromodulatory orphan receptor GPR139” (Nature Communications, 2025)
“And” between values parts separate entries of the source, which are not always exact repeats. Equal values may be shown once. Read-outs that look alike come from different tables or passages of the source. One block for each molecule: values may come before it.

Biological target: T1, GPR139 (Homo sapiens, UniProt Q6DWJ6)
T1 sequence (Q6DWJ6 1-353): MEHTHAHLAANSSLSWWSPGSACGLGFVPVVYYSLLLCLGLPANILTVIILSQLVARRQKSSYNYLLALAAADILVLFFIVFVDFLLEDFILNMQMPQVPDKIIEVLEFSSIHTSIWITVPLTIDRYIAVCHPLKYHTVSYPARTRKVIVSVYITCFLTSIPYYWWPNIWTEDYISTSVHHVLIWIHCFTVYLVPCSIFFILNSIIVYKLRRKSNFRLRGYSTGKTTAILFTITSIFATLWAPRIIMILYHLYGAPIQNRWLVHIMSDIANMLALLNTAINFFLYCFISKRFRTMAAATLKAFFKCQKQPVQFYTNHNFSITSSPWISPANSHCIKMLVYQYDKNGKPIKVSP
Experiment: Ca2+ mobilization assay, agonist mode, stable GPR139-CHOk1 cell line
Format: cell-based
Conditions: for Emax: normalized to Lundbeck Cmp 1a
In short: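 Agonist activity of compounds is assessed in stably transfected CHO-K1 cells using the calcium dye Fluo-4 at 37 °C in HEPES-buffered HBSS (pH 7.4). Efficacy is expressed relative to the reference agonist Lundbeck Cmp 1a, set as 100%.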

[1] = Supplementary Table 7, enantiopure compounds, read-out: pEC50, Ca2+ mobilization (converted)
[2] = Supplementary Table 7, read-out: Emax (%), Ca2+ mobilization
[3] = log [Compound] M -12.0, individual replicates
[4] = log [Compound] M -5.5, replicate experiments
[5] = log [Compound] M -6.0, replicate experiments
[6] = log [Compound] M -6.5, replicate experiments
[7] = log [Compound] M -7.0, replicate experiments
[8] = log [Compound] M -7.5, replicate experiments
[9] = log [Compound] M -8.0, replicate experiments
[10] = log [Compound] M -8.5, replicate experiments
[11] = log [Compound] M -9.0, replicate experiments

- EC50 [1]: 3160 nM
- Emax [2]: 99 ± 5%
- Ca2+ signal (% of Cmp 1a) [3]: 0 % of Cmp 1a
Structure (SMILES): C[C@@H](NC(=O)CNC(=O)c1cccc(Cl)c1)c1ccccc1 [JNJ(R), reference compound]
- Ca2+ signal (% of Cmp 1a) (log [Compound] M -8.5, individual replicates): -4.33 % of Cmp 1a and 7 % of Cmp 1a and -3.33 % of Cmp 1a
- Ca2+ signal (% of Cmp 1a) (log [Compound] M -9.0, individual replicates): -1.33 % of Cmp 1a and 6 % of Cmp 1a and -7 % of Cmp 1a
- Ca2+ signal (% of Cmp 1a) (log [compound] M -4.5, individual replicates): 84 % of Cmp 1a and 100 % of Cmp 1a and 82 % of Cmp 1a
- Ca2+ signal (% of Cmp 1a) (log [compound] M -5.0, individual replicates): 66 % of Cmp 1a and 88 % of Cmp 1a and 60 % of Cmp 1a
- Ca2+ signal (% of Cmp 1a) (log [compound] M -5.5, individual replicates): 49 % of Cmp 1a and 72 % of Cmp 1a and 33 % of Cmp 1a
- Ca2+ signal (% of Cmp 1a) (log [compound] M -6.0, individual replicates): 28 % of Cmp 1a and 43 % of Cmp 1a and 16 % of Cmp 1a
- Ca2+ signal (% of Cmp 1a) (log [compound] M -6.5, individual replicates): 13 % of Cmp 1a and 14 % of Cmp 1a and -2 % of Cmp 1a
- Ca2+ signal (% of Cmp 1a) (log [compound] M -7.0, individual replicates): 4.33 % of Cmp 1a and 9 % of Cmp 1a and -10 % of Cmp 1a
- Ca2+ signal (% of Cmp 1a) (log [compound] M -7.5, individual replicates): 11 % of Cmp 1a and 3.67 % of Cmp 1a and -10 % of Cmp 1a
- Ca2+ signal (% of Cmp 1a) (log [compound] M -8.0, individual replicates): 5.33 % of Cmp 1a (2×) and -13 % of Cmp 1a

- Emax (Supplementary Table 4, read-out: Emax (%), Ca2+ mobilization): 100 ± 2%
- EC50 (Supplementary Table 4, read-out: pEC50, Ca2+ mobilization (converted)): 63.1 nM
- EC50 [1]: 15.8 nM
- Emax [2]: 119 ± 6%
- Ca2+ signal (% of Cmp 1a) [4]: 100 % of Cmp 1a
- Ca2+ signal (% of Cmp 1a) [11]: 0 % of Cmp 1a
- Ca2+ signal (% of Cmp 1a) [3]: 0 % of Cmp 1a
- Ca2+ signal (% of Cmp 1a) (log [Compound] M = -5.5, individual replicate columns): 100 % of Cmp 1a
- Ca2+ signal (% of Cmp 1a) (log [Compound] M = -9.0, individual replicate columns): 0 % of Cmp 1a
Structure (SMILES): CC(NC(=O)CNC(=O)c1cccc(Cl)c1)c1ccccc1 (stereo not drawn) [JNJ-63533054, reference compound]
- Ca2+ signal (% of Cmp 1a) [5]: 91 % of Cmp 1a and 96 % of Cmp 1a and 95 % of Cmp 1a
- Ca2+ signal (% of Cmp 1a) [6]: 91 % of Cmp 1a and 78 % of Cmp 1a and 84 % of Cmp 1a
- Ca2+ signal (% of Cmp 1a) [7]: 68 % of Cmp 1a and 62 % of Cmp 1a and 69 % of Cmp 1a
- Ca2+ signal (% of Cmp 1a) [8]: 36 % of Cmp 1a and 26 % of Cmp 1a and 32 % of Cmp 1a
- Ca2+ signal (% of Cmp 1a) [9]: 25 % of Cmp 1a and 21 % of Cmp 1a and 8 % of Cmp 1a
- Ca2+ signal (% of Cmp 1a) (log [Compound] M -8.5, individual replicates, listed as JNJ (S)): 33 % of Cmp 1a and 17 % of Cmp 1a and 31 % of Cmp 1a
- Ca2+ signal (% of Cmp 1a) [10]: 11 % of Cmp 1a and 1.8 % of Cmp 1a and -4.36 % of Cmp 1a
- Ca2+ signal (% of Cmp 1a) (log [Compound] M -9.0, individual replicates, listed as JNJ (S)): 12 % of Cmp 1a and 6 % of Cmp 1a and 21 % of Cmp 1a
- Ca2+ signal (% of Cmp 1a) (log [Compound] M = -6.0, individual replicate columns): 96 % of Cmp 1a and 95 % of Cmp 1a and 91 % of Cmp 1a
- Ca2+ signal (% of Cmp 1a) (log [Compound] M = -6.5, individual replicate columns): 78 % of Cmp 1a and 84 % of Cmp 1a and 91 % of Cmp 1a
- Ca2+ signal (% of Cmp 1a) (log [Compound] M = -7.0, individual replicate columns): 62 % of Cmp 1a and 69 % of Cmp 1a and 68 % of Cmp 1a
- Ca2+ signal (% of Cmp 1a) (log [Compound] M = -7.5, individual replicate columns): 26 % of Cmp 1a and 32 % of Cmp 1a and 36 % of Cmp 1a
- Ca2+ signal (% of Cmp 1a) (log [Compound] M = -8.0, individual replicate columns): 21 % of Cmp 1a and 8 % of Cmp 1a and 25 % of Cmp 1a
- Ca2+ signal (% of Cmp 1a) (log [Compound] M = -8.5, individual replicate columns): 1.8 % of Cmp 1a and -4.36 % of Cmp 1a and 11 % of Cmp 1a
- Ca2+ signal (% of Cmp 1a) (log [compound] M -4.5, individual replicates, listed as JNJ (S)): 119 % of Cmp 1a and 120 % of Cmp 1a and 108 % of Cmp 1a
- Ca2+ signal (% of Cmp 1a) (log [compound] M -5.0, individual replicates, listed as JNJ (S)): 106 % of Cmp 1a and 110 % of Cmp 1a and 122 % of Cmp 1a
- Ca2+ signal (% of Cmp 1a) (log [compound] M -5.5, individual replicates, listed as JNJ (S)): 100 % of Cmp 1a and 103 % of Cmp 1a and 143 % of Cmp 1a
- Ca2+ signal (% of Cmp 1a) (log [compound] M -6.0, individual replicates, listed as JNJ (S)): 91 % of Cmp 1a and 107 % of Cmp 1a and 141 % of Cmp 1a
- Ca2+ signal (% of Cmp 1a) (log [compound] M -6.5, individual replicates, listed as JNJ (S)): 93 % of Cmp 1a and 118 % of Cmp 1a and 122 % of Cmp 1a
- Ca2+ signal (% of Cmp 1a) (log [compound] M -7.0, individual replicates, listed as JNJ (S)): 76 % of Cmp 1a and 120 % of Cmp 1a and 95 % of Cmp 1a
- Ca2+ signal (% of Cmp 1a) (log [compound] M -7.5, individual replicates, listed as JNJ (S)): 65 % of Cmp 1a and 92 % of Cmp 1a and 71 % of Cmp 1a
- Ca2+ signal (% of Cmp 1a) (log [compound] M -8.0, individual replicates, listed as JNJ (S)): 46 % of Cmp 1a and 57 % of Cmp 1a and 54 % of Cmp 1a

Structure (SMILES): COc1cc(OC)cc(C(=O)NNC(=O)Nc2cccc3ccccc23)c1 [Lundbeck Cmp 1a, reference compound]
- EC50 (GPR139-CHOk1, read-out: EC50, Ca2+ mobilization): 200 nM
- Emax (Supplementary Table 2, mean ± SEM, read-out: Emax (%) Ca2+): 108 ± 3%
- EC50 [1]: 158 nM
- Ca2+ signal (% of Cmp 1a) (log [Compound] M -4.5, replicate experiments): 104 % of Cmp 1a and 101 % of Cmp 1a and 98 % of Cmp 1a and 116 % of Cmp 1a and 117 % of Cmp 1a and 88 % of Cmp 1a and 112 % of Cmp 1a and 95 % of Cmp 1a and 103 % of Cmp 1a and 94 % of Cmp 1a
- Ca2+ signal (% of Cmp 1a) (log [Compound] M -5.0, replicate experiments): 104 % of Cmp 1a and 115 % of Cmp 1a and 107 % of Cmp 1a and 118 % of Cmp 1a and 110 % of Cmp 1a and 88 % of Cmp 1a and 112 % of Cmp 1a and 119 % of Cmp 1a
- Ca2+ signal (% of Cmp 1a) [4]: 96 % of Cmp 1a and 113 % of Cmp 1a and 100 % of Cmp 1a and 95 % of Cmp 1a and 84 % of Cmp 1a and 88 % of Cmp 1a and 114 % of Cmp 1a and 103 % of Cmp 1a and 108 % of Cmp 1a and 126 % of Cmp 1a
- Ca2+ signal (% of Cmp 1a) [5]: 81 % of Cmp 1a and 96 % of Cmp 1a and 87 % of Cmp 1a and 69 % of Cmp 1a and 82 % of Cmp 1a and 73 % of Cmp 1a and 84 % of Cmp 1a and 75 % of Cmp 1a and 88 % of Cmp 1a and 109 % of Cmp 1a
- Ca2+ signal (% of Cmp 1a) [6]: 63 % of Cmp 1a and 62 % of Cmp 1a and 65 % of Cmp 1a and 67 % of Cmp 1a and 53 % of Cmp 1a and 60 % of Cmp 1a and 76 % of Cmp 1a and 64 % of Cmp 1a and 68 % of Cmp 1a
- Ca2+ signal (% of Cmp 1a) [7]: 38 % of Cmp 1a (2×) and 39 % of Cmp 1a
- Ca2+ signal (% of Cmp 1a) [8]: 20 % of Cmp 1a and 15 % of Cmp 1a and 23 % of Cmp 1a and 11 % of Cmp 1a and 2.33 % of Cmp 1a and 22 % of Cmp 1a and 19 % of Cmp 1a and 29 % of Cmp 1a and 16 % of Cmp 1a and 35 % of Cmp 1a
- Ca2+ signal (% of Cmp 1a) [9]: 1.56 % of Cmp 1a and 5 % of Cmp 1a and 17 % of Cmp 1a and -13 % of Cmp 1a and 8 % of Cmp 1a and 12 % of Cmp 1a and 9 % of Cmp 1a and 3 % of Cmp 1a and 6.33 % of Cmp 1a
- Ca2+ signal (% of Cmp 1a) [10]: -0.447 % of Cmp 1a and 1.52 % of Cmp 1a and 10 % of Cmp 1a and -20 % of Cmp 1a and 2.33 % of Cmp 1a and 11 % of Cmp 1a and 4.67 % of Cmp 1a and -2 % of Cmp 1a and -1 % of Cmp 1a and 5 % of Cmp 1a and 23 % of Cmp 1a
- Ca2+ signal (% of Cmp 1a) [11]: -1.54 % of Cmp 1a and 0.497 % of Cmp 1a and 16 % of Cmp 1a and -12 % of Cmp 1a and 8 % of Cmp 1a and 9 % of Cmp 1a and 3.33 % of Cmp 1a and 13 % of Cmp 1a and 11 % of Cmp 1a
